Data as given in patent US20040037843A1, “Inducing cellular immune responses to prostate cancer antigens using peptide and nucleic acid compositions” (priority 2003, published 2004).

System: .221A2.1 peptide-loaded target cells and cells expressing endogenous antigen
Assay: Primary in vitro CTL induction with peptide-pulsed DC, CTL lytic activity by 51Cr release
Type: cell-based, human
Settings: immunogenicity, positive/tested; for A2 peptide: CTL recognition of the peptide; for A2 native: CTL recognition of native (wild-type) target
Procedure: Testing was performed using the following methodology:
Cells that express an antigen of interest, or transfectants comprising the gene encoding the antigen of interest, can be used as target cells to test the ability of peptide-specific CTLs to recognize endogenous antigen.
The monocytes are purified by plating 10×10^6 PBMC/well in a 6-well plate. After 2 hours at 37° C., the non-adherent cells are removed by gently shaking the plates and aspirating the supernatants. The wells are washed a total of three times with 3 ml RPMI to remove most of the non-adherent and loosely adherent cells. Three ml of complete medium containing 50 ng/ml of GM-CSF and 1,000 U/ml of IL-4 are then added to each well. TNFα is added to the DCs on day 6 at 75 ng/ml and the cells are used for CTL induction cultures on day 7.
Induction of CTL with DC and Peptide: CD8+ T-cells are isolated by positive selection with Dynal imnmunomagnetic beads (Dynabeads® M-450) and the detacha-bead® reagent. Typically about 200-250×10^6 PBMC are processed to obtain 24×10^6 CD8^+T-cells (enough for a 48-well plate culture). Briefly, the PBMCs are thawed in RPMI with 30 μg/ml DNAse, washed once with PBS containing 1% human AB serum and resuspended in PBS/1% AB serum at a concentration of 20×10^6 cells/ml. The magnetic beads are washed 3 times with PBS/AB serum, added to the cells (140 μl beads/20×10^6 cells) and incubated for 1 hour at 4° C. with continuous mixing. The beads and cells are washed 4× with PBS/AB serum to remove the nonadherent cells and resuspended at 100×10^6 cells/ml (based on the original cell number) in PBS/AB serum containing 100 μl/ml detacha-bead® reagent and 30 μg/ml DNAse. The mixture is incubated for 1 hour at room temperature with continuous mixing. The beads are washed again with PBS/AB/DNAse to collect the CD8+ T-cells. The DC are collected and centrifuged at 1300 rpm for 5-7 minutes, washed once with PBS with 1% BSA, counted and pulsed with 40 μg/ml of peptide at a cell concentration of 1-2×10^6/ml in the presence of 3 μg/ml β2-microglobulin for 4 hours at 20° C. The DC are then irradiated (4,200 rads), washed 1 time with medium and counted again.
Setting up induction cultures: 0.25 ml cytokine-generated DC (@1×10^5 cells/ml) are co-cultured with 0.25 ml of CD8+ T-cells (@2×10^6 cell/ml) in each well of a 48-well plate in the presence of 10 ng/ml of IL-7. Recombinant human IL10 is added the next day at a final concentration of 10 ng/ml and rhuman IL2 is added 48 hours later at 10 IU/mL.
Restimulation of the induction cultures with peptide-pulsed adherent cells: Seven and fourteen days after the primary induction the cells are restimulated with peptide-pulsed adherent cells. The PBMCS are thawed and washed twice with RPMI and DNAse. The cells are resuspended at 5×10^6 cells/ml and irradiated at ˜4200 rads. The PBMCs are plated at 2×10^6 in 0.5 ml complete medium per well and incubated for 2 hours at 37° C. The plates are washed twice with RPMI by tapping the plate gently to remove the nonadherent cells and the adherent cells pulsed with 10 μg/ml of peptide in the presence of 3 μg/ml β2 microglobulin in 0.25 ml RPMI/5% AB per well for 2 hours at 37° C. Peptide solution from each well is aspirated and the wells are washed once with RPMI. Most of the media is aspirated from the induction cultures (CD8+ cells) and brought to 0.5 ml with fresh media. The cells are then transferred to the wells containing the peptide-pulsed adherent cells. Twenty four hours later rhuman IL10 is added at a final concentration of 10 ng/ml and rhuman IL2 is added the next day and again 2-3 days later at 50 IU/ml (Tsai et al., Critical Reviews in Immunology 18(1-2):65-75, 1998). Seven days later the cultures are assayed for CTL activity in a ^51Cr release assay. In some experiments the cultures are assayed for peptide-specific recognition in the in situ IFNγ ELISA at the time of the second restimulation followed by assay of endogenous recognition 7 days later. […]

SMILES	A2 peptide	A2 native
CC[C@H](C)[C@H](NC(=O)[C@H](CC(=O)O)NC(=O)[C@H](Cc1ccccc1)NC(=O)[C@H](CC(C)C)NC(=O)[C@H](C)N)C(=O)N[C@@H](CCC(=O)O)C(=O)N[C@@H](CO)C(=O)N[C@@H](CCCCN)C(=O)N[C@H](C(=O)O)C(C)C [Peptide 1129.08]	2/2	
CSCC[C@H](NC(=O)CN)C(=O)N1CCC[C@H]1C(=O)N[C@@H](CCC(=O)O)C(=O)NCC(=O)N[C@@H](CC(=O)O)C(=O)N[C@@H](CC(C)C)C(=O)N[C@H](C(=O)N[C@@H](Cc1ccc(O)cc1)C(=O)N[C@H](C(=O)O)C(C)C)C(C)C [Peptide 1129.04]	0/1	
CC(C)C[C@H](NC(=O)[C@H](C)N)C(=O)NCC(=O)N[C@H](C(=O)N[C@H](C(=O)N[C@@H](CS)C(=O)N[C@@H](Cc1ccc(O)cc1)C(=O)N[C@H](C(=O)O)C(C)C)[C@@H](C)O)[C@@H](C)O [Peptide 1389.14]	2/3	1/3
CC(C)C[C@H](NC(=O)[C@H](CCC(=O)O)NC(=O)[C@H](CCCCN)NC(=O)[C@H](C)NC(=O)[C@H](CC(C)C)NC(=O)[C@@H](N)C(C)C)C(=O)N[C@@H](CCCCN)C(=O)N[C@@H](Cc1ccccc1)C(=O)N[C@H](C(=O)O)C(C)C [Peptide 1097.17]	1/3	
CC(C)C[C@H](NC(=O)[C@H](CC(=O)O)NC(=O)[C@@H](NC(=O)[C@H](CS)NC(=O)[C@H](CCC(N)=O)NC(=O)[C@H](CC(C)C)NC(=O)[C@@H](N)CCCCN)C(C)C)C(=O)N[C@@H](Cc1c[nH]cn1)C(=O)N[C@H](C(=O)N[C@H](C(=O)O)C(C)C)C(C)C [Peptide 1419.24]	1/2	1/2
CC[C@H](C)[C@H](NC(=O)[C@@H]1CCCN1C(=O)[C@H](Cc1c[nH]cn1)NC(=O)[C@@H](NC(=O)[C@@H]1CCCN1C(=O)[C@@H](NC(=O)[C@H](CO)NC(=O)[C@@H]1CCCN1C(=O)[C@H](CC(C)C)NC(=O)CN)[C@@H](C)CC)C(C)C)C(=O)O [Peptide 1129.10]	2/4	
CC(C)C[C@H](NC(=O)[C@H](C)N)C(=O)NCC(=O)N[C@H](C(=O)N[C@H](C(=O)N[C@@H](CS)C(=O)N[C@@H](Cc1ccc(O)cc1)C(=O)N[C@@H](C)C(=O)O)[C@@H](C)O)[C@@H](C)O [Peptide 1419.01]	1/2	
CC(C)C[C@H](NC(=O)[C@H](CC(=O)O)NC(=O)[C@@H](NC(=O)[C@H](CS)NC(=O)[C@H](CCC(N)=O)NC(=O)[C@H](CC(C)C)NC(=O)[C@@H](N)CCCCN)C(C)C)C(=O)N[C@@H](Cc1c[nH]cn1)C(=O)N[C@H](C(=O)O)C(C)C [Peptide 990.01]	1/2	
CSCC[C@H](N)C(=O)N[C@@H](CC(C)C)C(=O)N[C@@H](CC(C)C)C(=O)N[C@@H](CCCNC(=N)N)C(=O)N[C@@H](CC(C)C)C(=O)N[C@@H](CO)C(=O)N[C@@H](CCC(=O)O)C(=O)N1CCC[C@H]1C(=O)N[C@H](C(=O)O)C(C)C [Peptide 1389.10]	3/3	1/3
CC(C)C[C@H](NC(=O)[C@H](CO)NC(=O)[C@H](CCCNC(=N)N)NC(=O)[C@@H]1CCCN1C(=O)[C@H](CCCNC(=N)N)NC(=O)[C@H](CC(C)C)NC(=O)[C@@H](N)Cc1ccccc1)C(=O)N[C@@H](CCC(N)=O)C(=O)N[C@@H](CS)C(=O)N[C@H](C(=O)O)C(C)C [Peptide 1419.07]	1/3	
CC(C)C[C@H](NC(=O)[C@H](CCCCN)NC(=O)[C@H](CCCCN)NC(=O)[C@@H]1CCCN1C(=O)[C@@H](NC(=O)[C@H](CC(C)C)NC(=O)[C@@H](N)Cc1ccccc1)[C@@H](C)O)C(=O)N[C@@H](CCC(N)=O)C(=O)N[C@@H](CS)C(=O)N[C@H](C(=O)O)C(C)C [Peptide 1098.02]	3/4	
CC[C@H](C)[C@H](NC(=O)[C@H](CO)NC(=O)[C@H](CC(C)C)NC(=O)[C@H](CC(C)C)NC(=O)[C@@H](N)CC(C)C)C(=O)N[C@@H](C)C(=O)N[C@@H](CC(C)C)C(=O)N[C@@H](CO)C(=O)N[C@H](C(=O)O)C(C)C [Peptide 1418.13]	2/2	2/2
CSCC[C@H](NC(=O)[C@@H](N)CC(C)C)C(=O)N[C@@H](Cc1ccc(O)cc1)C(=O)N[C@@H](CO)C(=O)N[C@@H](CC(C)C)C(=O)N[C@H](C(=O)N[C@@H](Cc1c[nH]cn1)C(=O)N[C@@H](CC(N)=O)C(=O)N[C@@H](CC(C)C)C(=O)O)C(C)C [Peptide 1126.14]	3/3	
CC[C@H](C)[C@H](N)C(=O)N[C@H](C(=O)N[C@@H](CC(C)C)C(=O)N[C@@H](Cc1c[nH]c2ccccc12)C(=O)N[C@@H](CCC(N)=O)C(=O)N1CCC[C@H]1C(=O)N[C@H](C(=O)N1CCC[C@H]1C(=O)N[C@H](C(=O)O)C(C)C)[C@@H](C)CC)[C@@H](C)O [Peptide 1418.25]	3/3	2/3
CC(C)C[C@H](NC(=O)[C@@H](N)C(C)C)C(=O)N[C@H](C(=O)N[C@@H](Cc1c[nH]cn1)C(=O)N1CCC[C@H]1C(=O)N[C@@H](CCC(N)=O)C(=O)N[C@@H](Cc1c[nH]c2ccccc12)C(=O)N[C@H](C(=O)N[C@@H](CC(C)C)C(=O)N[C@H](C(=O)N[C@H](C(=O)O)C(C)C)[C@@H](C)O)C(C)C)C(C)C [Peptide 1419.11]	2/2	2/2
CC[C@H](C)[C@H](N)C(=O)N[C@@H](CC(C)C)C(=O)N[C@@H](CC(C)C)C(=O)N[C@@H](Cc1c[nH]c2ccccc12)C(=O)N[C@@H](CCC(N)=O)C(=O)N1CCC[C@H]1C(=O)N[C@H](C(=O)N1CCC[C@H]1C(=O)N[C@H](C(=O)O)C(C)C)[C@@H](C)CC [Peptide 1044.04]	5/5	
CC(C)C[C@H](NC(=O)[C@H](Cc1c[nH]c2ccccc12)NC(=O)[C@H](Cc1ccccc1)NC(=O)[C@H](Cc1ccccc1)NC(=O)[C@H](CC(C)C)NC(=O)[C@@H](N)CC(C)C)C(=O)N[C@@H](CC(=O)O)C(=O)N[C@@H](CCCNC(=N)N)C(=O)N[C@@H](CO)C(=O)N[C@H](C(=O)O)C(C)C [Peptide 1097.09]	3/3	
CC[C@H](C)[C@H](NC(=O)[C@H](Cc1ccc(O)cc1)NC(=O)[C@H](C)NC(=O)[C@@H](NC(=O)CNC(=O)[C@H](CCCNC(=N)N)NC(=O)[C@H](CCC(=O)O)NC(=O)[C@H](CCC(N)=O)NC(=O)[C@H](CC(C)C)NC(=O)[C@@H](N)CC(C)C)C(C)C)C(=O)O [Peptide 1129.01]	3/3	
CC(C)C[C@H](NC(=O)[C@H](Cc1c[nH]c2ccccc12)NC(=O)[C@H](Cc1ccccc1)NC(=O)[C@H](Cc1ccccc1)NC(=O)[C@@H](NC(=O)[C@@H](N)CC(C)C)[C@@H](C)O)C(=O)N[C@@H](CC(=O)O)C(=O)N[C@@H](CCCNC(=N)N)C(=O)N[C@@H](CO)C(=O)N[C@H](C(=O)O)C(C)C [Peptide 1418.23]	3/3	2/3
